The numbers were not newly measured in patent US10875836B2, “Callyspongiolide, analogs thereof and uses thereof” (Purdue Research Foundation, priority 2016, dated 2020), which cites them from elsewhere.

Usually IC50 stands for the concentration needed to halve the response being measured.

Series [1] deals with human Jurkat J16 T lymphocytes.
The subject of series [2] is human Ramos B lymphocytes.

For `C[C@@H]1C/C=C\C(=O)O[C@H](/C=C/C#C/C=C/C(C)(C)[C@@H](O)c2cccc(O)c2Br)[C@@H](C)/C=C/[C@H](C)C[C@H](OC(N)=O)C1` [callyspongiolide], the IC50 was 0.07 µM in series [1] and 0.06 µM in series [2].

For the compound callyazepin, the cytotoxicity result in the series on K562 cell line and with A549 cell line was “moderate cytotoxicity” throughout.
